Reference: patent US20220177511A1, “SERIES OF HALOGENATED TETRACYCLIC TRITERPENE DERIVATIVES AND THEIR PREPARATION AND APPLICATION” (SHANGHAI KING-X BIOTECH CO., LTD, priority 2019, published 2022)

System: chronic heart failure mice
Experiment: Pharmacodynamic comparison of LCZ696 and compound 2 in chronic heart failure mice (echocardiography)
Format: in vivo
Conditions: for CO / EF / FS / HR: Compound 2 group; for EF, day 28 vs day 0 (words) / short-axis shortening rate (FS %), day 28 vs day 0 (words): chronic heart failure mice, p<0.0005 (FIG. 8)
Excerpt: With EF<50%, chronic heart failure mice were selected.
The mice were detected by cardiac ultrasound after 28 days of administration.

[1] = chronic heart failure mice (FIG. 9)

SMILES: CC(C)(O)[C@@H]1CC[C@](C)([C@H]2[C@@H](O)C[C@@]3(C)[C@@H]4C[C@H](O)[C@H]5C(C)(C)C(F)(F)CC[C@@]56C[C@@]46CC[C@]23C)O1 [Compound 2, (2aR,3R,4S,5aS,5bS,7S,7aR,11aR,12aS)-9,9-difluoro-3-((2R,5S)-5-(2-hydroxypropan-2-yl)-2-methyltetrahydrofuran-2-yl)-2a,5a,8,8-tetramethyltetradecahydro-1H,12H-cyclopenta[a]cyclopropa[e]phenanthrene-4,7-diol]
- CO (Day 0): 33.39 ± 2.45 mL/min
- EF (Day 0): 25.04 ± 1.87%
- FS (Day 0): 9.65 ± 0.84 %
- HR (Day 0): 564.5 ± 14.96 times/min
- CO (Day 28): 48.09 ± 3.69 mL/min
- EF (Day 28): 43.83 ± 3.62 %
- FS (Day 28): 18.86 ± 2.17%
- HR (Day 28): 579.3 ± 12.44 times/min
- Cardiac output per minute (CO), day 28 vs day 0 (words) [1]: significantly improved
- Heart rate (HR), day 28 vs day 0 [1]: no significant change
- Cardiac output per minute (CO), day 28 vs day 0 (words) (chronic heart failure mice (FIG. 9), listed as compound 2): increased significantly
- EF, day 28 vs day 0 (words): significantly improved
- short-axis shortening rate (FS %), day 28 vs day 0 (words): significantly improved
- EF, day 28 vs day 0 (words) (listed as compound 2): significantly increased
- short-axis shortening rate (FS %), day 28 vs day 0 (words) (listed as compound 2): more significant
- left ventricular ejection fraction EF % increased by (compound 2 group, after 28 days of administration): 75.04%
